Tests used:
human FPR2 = biological target: T1, human FPR2 (Homo sapiens, UniProt P25090); experiment: FPR2 cyclic adenosine monophosphate (cAMP) assay; type: cell-based; details: CHO cells overexpressing human FPR2; forskolin 5 μM; inhibition of cAMP production; HTRF; read-out: hFPR2 cAMP2 EC50
T1 sequence (P25090 1-351): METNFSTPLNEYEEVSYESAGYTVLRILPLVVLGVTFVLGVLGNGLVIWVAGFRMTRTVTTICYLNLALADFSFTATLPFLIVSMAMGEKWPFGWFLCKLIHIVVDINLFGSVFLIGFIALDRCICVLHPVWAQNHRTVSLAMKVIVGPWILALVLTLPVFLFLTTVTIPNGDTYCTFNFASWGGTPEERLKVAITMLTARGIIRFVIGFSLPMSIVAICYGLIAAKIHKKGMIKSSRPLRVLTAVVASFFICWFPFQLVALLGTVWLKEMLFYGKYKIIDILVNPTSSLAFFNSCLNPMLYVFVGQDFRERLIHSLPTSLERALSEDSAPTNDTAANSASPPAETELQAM
Summary of the method: (§1)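 Inhibition of forskolin-stimulated cAMP (final forskolin 5 μM for FPR2, 10 μM for FPR1; IBMX 200 μM) was measured by HTRF in recombinant CHO cells after 30 min at room temperature.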

human FPR1 = biological target: T2, human FPR1 (Homo sapiens, UniProt P21462); experiment: FPR1 cyclic adenosine monophosphate (cAMP) assay; type: cell-based; details: CHO cells overexpressing human FPR1; forskolin 10 μM; inhibition of cAMP production; HTRF; read-out: hFPR1 cAMP2 EC50
T2 sequence (P21462 1-350): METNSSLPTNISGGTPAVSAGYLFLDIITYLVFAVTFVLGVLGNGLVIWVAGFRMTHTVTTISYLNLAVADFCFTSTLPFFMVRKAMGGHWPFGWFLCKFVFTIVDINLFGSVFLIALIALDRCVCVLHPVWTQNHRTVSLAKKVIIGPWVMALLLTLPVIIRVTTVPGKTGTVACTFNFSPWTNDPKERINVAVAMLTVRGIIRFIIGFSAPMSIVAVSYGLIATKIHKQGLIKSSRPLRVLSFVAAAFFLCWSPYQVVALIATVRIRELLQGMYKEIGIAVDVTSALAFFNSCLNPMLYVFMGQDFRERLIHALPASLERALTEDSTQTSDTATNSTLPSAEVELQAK
Summary of the method: as §1

Row | SMILES | EC50 (human FPR2) [nM] | EC50 (human FPR1) [nM]
1 | COc1cc(F)c(-c2c(NC(=O)c3ccc(OC(F)F)cc3)c(=O)n(-c3cccc(N4CCN(CCS(C)(=O)=O)CC4)n3)n2C)c(F)c1 [Example 206, N-[5-(2,6-difluoro-4-methoxyphenyl)-2-{6-[4-(2-methanesulfonylethyl)piperazin-1-yl]pyridin-2-yl}-1-methyl-3-oxo-2,3-dihydro-1H-pyrazol-4-yl]-4-(difluoromethoxy)benzamide] | 44 | > 5000
2 | COc1cc(F)c(-c2c(NC(=O)c3ccc(OC(F)F)cc3)c(=O)n(-c3cccc(N4CCN(CC5CC5)CC4)n3)n2C)c(F)c1 [Example 207, N-(2-{6-[4-(cyclopropylmethyl)piperazin-1-yl]pyridin-2-yl}-5-(2,6-difluoro-4-methoxyphenyl)-1-methyl-3-oxo-2,3-dihydro-1H-pyrazol-4-yl)-4-(difluoromethoxy)benzamide] | 3 | 140
3 | COc1cc(F)c(-c2c(NC(=O)c3ccc(OC(F)F)cc3)c(=O)n(-c3cccc(N4CCN(CCCO)CC4)n3)n2C)c(F)c1 [Example 208, N-[5-(2,6-difluoro-4-methoxyphenyl)-2-{6-[4-(3-hydroxypropyl)piperazin-1-yl]pyridin-2-yl}-1-methyl-3-oxo-2,3-dihydro-1H-pyrazol 4-yl]-4-(difluoromethoxy)benzamide] | 3 | > 10000
4 | COc1cc(F)c(-c2c(NC(=O)c3ccc(OC(F)F)cc3)c(=O)n(-c3nc(Cl)ccc3N(C)C)n2C)c(F)c1 [Example 209, N-{2-[6-chloro-3-(dimethylamino)pyridin-2-yl]-5-(2,6-difluoro-4-methoxyphenyl)-1-methyl-3-oxo-2,3-dihydro-1H-pyrazol-4-yl}-4-(difluoromethoxy)benzamide] | 3 | > 10000
5 | COc1cc(F)c(-c2c(NC(=O)c3ccc(OC(F)F)cc3)c(=O)n(-c3nc(N4CC(C)(O)C4)ccc3F)n2C)c(F)c1 [Example 210, N-[5-(2,6-difluoro-4-methoxyphenyl)-2-[3-fluoro-6-(3-hydroxy-3-methylazetidin-1-yl)pyridin-2-yl]-1-methyl-3-oxo-2,3-dihydro-1H-pyrazol-4-yl]-4-(difluoromethoxy)benzamide] | 11 | 4800
6 | COc1cc(F)c(-c2c(NC(=O)c3ccc(OC(F)F)cc3)c(=O)n(-c3ncccc3N3CC(C)(O)C3)n2C)c(F)c1 [Example 211, N-[5-(2,6-difluoro-4-methoxyphenyl)-2-[3-(3-hydroxy-3-methylazetidin-1-yl)pyridin-2-yl]-1-methyl-3-oxo-2,3-dihydro-1H-pyrazol-4-yl]-4-(difluoromethoxy)benzamide] | 12 | > 10000
7 | COCCN1CCN(c2cccc(-n3c(=O)c(NC(=O)c4ccc(OC(F)F)cc4)c(-c4c(F)cc(OC)cc4F)n3C)n2)CC1 [Example 212, N-[5-(2,6-difluoro-4-methoxyphenyl)-2-{6-[4-(2-methoxyethyl)piperazin-1-yl]pyridin-2-yl}-1-methyl-3-oxo-2,3-dihydro-1H-pyrazol-4-yl]-4-(difluoromethoxy)benzamide] | 9 | > 10000
8 | COc1cc(F)c(-c2c(NC(=O)c3ccc(OC(F)F)cc3)c(=O)n(-c3cccc(N4CCN(S(C)(=O)=O)CC4)n3)n2C)c(F)c1 [Example 213, N-[5-(2,6-difluoro-4-methoxyphenyl)-2-[6-(4-methanesulfonylpiperazin-1-yl)pyridin-2-yl]-1-methyl-3-oxo-2,3-dihydro-1H-pyrazol-4-yl]-4-(difluoromethoxy)benzamide] | 16 | > 10000
9 | COc1cc(F)c(-c2c(NC(=O)c3ccc(OC(F)F)cc3)c(=O)n(-c3nc(N4CCNC(=O)C4)ccc3C(F)(F)F)n2C)c(F)c1 [Example 214, N-[5-(2,6-difluoro-4-methoxyphenyl)-1-methyl-3-oxo-2-[6-(3-oxopiperazin-1-yl)-3-(trifluoromethyl)pyridin-2-yl]-2,3-dihydro-1H-pyrazol-4-yl]-4-(difluoromethoxy)benzamide] | 4 | 150
10 | CNc1ccc(Cl)nc1-n1c(=O)c(NC(=O)c2ccc(OC(F)F)cc2)c(-c2c(F)cc(OC)cc2F)n1C [Example 215, N-{2-[6-chloro-3-(methylamino)pyridin-2-yl]-5-(2,6-difluoro-4-methoxyphenyl)-1-methyl-3-oxo-2,3-dihydro-1H-pyrazol-4-yl}-4-(difluoromethoxy)benzamide] | 5 | > 10000
11 | COc1cc(F)c(-c2c(NC(=O)c3ccc(OC(F)F)cc3)c(=O)n(-c3nc(N4CCC[C@H]4C(N)=O)ccc3C(F)(F)F)n2C)c(F)c1 [Example 216, (2S)-1-{6-[3-(2,6-difluoro-4-methoxyphenyl)-4-[4-(difluoromethoxy)benzamido]-2-methyl-5-oxo-2,5-dihydro-1H-pyrazol-1-yl]-5-(trifluoromethyl)pyridin-2-yl}pyrrolidine-2-carboxamide] | 6 | > 10000
12 | COc1cc(F)c(-c2c(NC(=O)c3ccc(OC(F)F)cc3)c(=O)n(-c3nc(Cl)ccc3N3CCN(C)CC3)n2C)c(F)c1 [Example 217, N-{2-[6-chloro-3-(4-methylpiperazin-1-yl)pyridin-2-yl]-5-(2,6-difluoro-4-methoxyphenyl)-1-methyl-3-oxo-2,3-dihydro-1H-pyrazol-4-yl}-4-(difluoromethoxy)benzamide] | 6 | > 10000
13 | COc1cc(F)c(-c2c(NC(=O)c3ccc(OC(F)F)cc3)c(=O)n(-c3cccc(N4CC(C)(C)C4)n3)n2C)c(F)c1 [Example 218, N-[5-(2,6-difluoro-4-methoxyphenyl)-2-[6-(3,3-dimethylazetidin-1-yl)pyridin-2-yl]-1-methyl-3-oxo-2,3-dihydro-1H-pyrazol-4-yl]-4-(difluoromethoxy)benzamide] | 21 | 1500
14 | COc1cc(F)c(-c2c(NC(=O)c3ccc(OC(F)F)cc3)c(=O)n(-c3nc(N4CCN(C)CC4)ccc3F)n2C)c(F)c1 [Example 219, N-[5-(2,6-difluoro-4-methoxyphenyl)-2-[3-fluoro-6-(4-methylpiperazin-1-yl)pyridin-2-yl]-1-methyl-3-oxo-2,3-dihydro-1H-pyrazol-4-yl]-4-(difluoromethoxy)benzamide] | 10 | 3200
15 | COc1cc(F)c(-c2c(NC(=O)c3ccc(OC(F)F)cc3)c(=O)n(-c3nc(N4CCN(C)C(=O)C4)ccc3C(F)(F)F)n2C)c(F)c1 [Example 220, N-[5-(2,6-difluoro-4-methoxyphenyl)-1-methyl-2-[6-(4-methyl-3-oxopiperazin-1-yl)-3-(trifluoromethyl)pyridin-2-yl]-3-oxo-2,3-dihydro-1H-pyrazol-4-yl]-4-(difluoromethoxy)benzamide] | 2 | 560
16 | COc1ccc(-c2c(NC(=O)c3ccc(OC(F)F)cc3)c(=O)n(-c3ncccc3C(F)(F)F)n2C)cc1Cl [Example 221, N-(5-(3-chloro-4-methoxyphenyl)-1-methyl-3-oxo-2-(3-(trifluoromethyl)pyridin-2-yl)-2,3-dihydro-1H-pyrazol-4-yl)-4-(difluoromethoxy)benzamide] | 141 | > 5000
17 | COc1cc(F)c(-c2c(NC(=O)c3ccc(OC(F)F)cc3)c(=O)n(-c3nc(Cl)ccc3C(F)(F)F)n2C)c(F)c1 [Example 222, N-{2-[6-chloro-3-(trifluoromethyl)pyridin-2-yl]-5-(2,6-difluoro-4-methoxyphenyl)-1-methyl-3-oxo-2,3-dihydro-1H-pyrazol-4-yl}-4-(difluoromethoxy)benzamide] | 5 | > 10000
18 | Cn1ncc2cc(-c3c(NC(=O)c4ccc(OC(F)F)cc4)c(=O)n(-c4ncccc4C(F)(F)F)n3C)ccc21 [Example 223, 4-(difluoromethoxy)-N-(1-methyl-5-(1-methyl-1H-indazol-5-yl)-3-oxo-2-(3-(trifluoromethyl)pyridin-2-yl)-2,3-dihydro-1H-pyrazol-4-yl)benzamide] | 166 | > 5000
19 | COc1cc(F)c(-c2c(NC(=O)c3ccc(OC(F)F)cc3)c(=O)n(-c3nccc(N4CCN(C)CC4)c3C(F)(F)F)n2C)c(F)c1 [Example 224, N-[5-(2,6-difluoro-4-methoxyphenyl)-1-methyl-2-[4-(4-methylpiperazin-1-yl)-3-(trifluoromethyl)pyridin-2-yl]-3-oxo-2,3-dihydro-1H-pyrazol-4-yl]-4-(difluoromethoxy)benzamide] | 15 | > 5000

Reference: patent US12577206B2 (BRISTOL-MYERS SQUIBB COMPANY, priority 2020, dated 2026)
